Test results reported in patent US7479493B2, “Substituted benzyl amine compounds” (Janssen Pharmaceutica N.V., priority 2006, dated 2009).
pKi: −log10 of the molar value.

Legend:
[1] = target: cloned human H3 receptor (Homo sapiens, UniProt Q9Y5N1); test: H3 Receptor Binding; conditions: cloned human H3 receptor stably expressed in SK-N-MC cells
[2] = target: T1, human SERT (Homo sapiens, UniProt P31645); test: Human SERT (3H-citalopram binding, HEK293 membranes); conditions: HEK293 membranes expressing the human SERT, rt 1 h
T1 construct: expressed in transfected cells; host or cells: HEK293 membranes
Protocol: Homogenized HEK293 (Human Embryonic Kidney) membranes expressing the human SERT were incubated with ^3H-citalopram (SERT) at rt for 1 h in 50 mM Tris, 120 mM NaCl, 5 mM KCl (pH 7.4). Nonspecific binding was determined in the presence of 10 μM fluoxetine for the SERT. The membranes were washed and the radioactivity was counted as above.

[3] = target: Rat SERT (Rattus norvegicus, UniProt P31652); test: biochemical
Protocol: The supernatant was removed and re-centrifuged at 15,000 rpm for 30 min. […] Membranes were incubated with 0.6 nM [^3H]-Citalopram plus/minus test compounds for 60 min at 25° C. and harvested by rapid filtration over GF/C glass fiber filters (pretreated with 0.3% polyethylenimine) followed by four washes with ice-cold buffer. Nonspecific binding was defined in the presence of 100 μM fluoxetine.

[4] = target: human H3 receptor (Homo sapiens, UniProt Q9Y5N1); test: Cyclic AMP Accumulation (reporter gene, SK-N-MC cells)
human H3 receptor, sequence (Q9Y5N1 whole entry): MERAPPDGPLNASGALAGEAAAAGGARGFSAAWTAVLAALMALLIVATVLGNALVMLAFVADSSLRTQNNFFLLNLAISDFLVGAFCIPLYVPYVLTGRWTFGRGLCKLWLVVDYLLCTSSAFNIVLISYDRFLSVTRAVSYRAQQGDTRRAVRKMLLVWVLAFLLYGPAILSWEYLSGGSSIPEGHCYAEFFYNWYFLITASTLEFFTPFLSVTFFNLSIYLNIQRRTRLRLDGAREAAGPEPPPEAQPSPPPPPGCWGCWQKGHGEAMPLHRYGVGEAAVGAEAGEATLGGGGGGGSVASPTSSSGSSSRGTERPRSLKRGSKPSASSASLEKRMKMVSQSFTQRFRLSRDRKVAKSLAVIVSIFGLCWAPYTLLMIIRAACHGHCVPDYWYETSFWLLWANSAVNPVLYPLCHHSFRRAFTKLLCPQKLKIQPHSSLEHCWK
Protocol: Sublines of SK-N-MC cells were created that expressed a reporter construct and the human H3 receptor. The reporter gene (β-galactosidase) is under the control of multiple cyclic AMP responsive elements. In 96-well plates, histamine was added directly to the cell media followed 5 min later by an addition of forskolin (5 μM final concentration). When appropriate, antagonists were added 10 min prior to agonist addition. After a 6-h incubation at 37° C., the media was aspirated and the cells washed with 200 μL of phosphate-buffered saline followed by a second aspiration. […] Color was developed using 25 μL of 1 mg/mL substrate solution (chlorophenolred β-D galactopyranoside; Roche Molecular Biochemicals, Indianapolis, Ind.).

cloned human H3 receptor, sequence (Q9Y5N1 whole entry): as above
Rat SERT, sequence (P31652 whole entry): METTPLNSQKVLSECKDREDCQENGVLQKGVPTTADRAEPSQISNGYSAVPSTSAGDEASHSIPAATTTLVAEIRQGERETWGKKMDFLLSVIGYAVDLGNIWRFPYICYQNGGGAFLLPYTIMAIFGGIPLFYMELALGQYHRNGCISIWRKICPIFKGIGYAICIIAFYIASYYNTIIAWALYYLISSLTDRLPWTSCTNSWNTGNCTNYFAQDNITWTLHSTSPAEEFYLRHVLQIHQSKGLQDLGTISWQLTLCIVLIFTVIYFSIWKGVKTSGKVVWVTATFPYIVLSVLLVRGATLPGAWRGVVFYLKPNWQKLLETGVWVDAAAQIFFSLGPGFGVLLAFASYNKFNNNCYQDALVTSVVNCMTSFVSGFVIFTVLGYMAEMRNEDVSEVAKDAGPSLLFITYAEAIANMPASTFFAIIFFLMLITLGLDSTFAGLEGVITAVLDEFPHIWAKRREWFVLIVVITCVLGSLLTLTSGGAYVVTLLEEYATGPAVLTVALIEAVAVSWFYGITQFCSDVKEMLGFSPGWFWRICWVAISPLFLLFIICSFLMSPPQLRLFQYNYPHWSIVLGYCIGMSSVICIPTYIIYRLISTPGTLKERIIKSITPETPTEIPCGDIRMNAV
T1 sequence (P31645 whole entry): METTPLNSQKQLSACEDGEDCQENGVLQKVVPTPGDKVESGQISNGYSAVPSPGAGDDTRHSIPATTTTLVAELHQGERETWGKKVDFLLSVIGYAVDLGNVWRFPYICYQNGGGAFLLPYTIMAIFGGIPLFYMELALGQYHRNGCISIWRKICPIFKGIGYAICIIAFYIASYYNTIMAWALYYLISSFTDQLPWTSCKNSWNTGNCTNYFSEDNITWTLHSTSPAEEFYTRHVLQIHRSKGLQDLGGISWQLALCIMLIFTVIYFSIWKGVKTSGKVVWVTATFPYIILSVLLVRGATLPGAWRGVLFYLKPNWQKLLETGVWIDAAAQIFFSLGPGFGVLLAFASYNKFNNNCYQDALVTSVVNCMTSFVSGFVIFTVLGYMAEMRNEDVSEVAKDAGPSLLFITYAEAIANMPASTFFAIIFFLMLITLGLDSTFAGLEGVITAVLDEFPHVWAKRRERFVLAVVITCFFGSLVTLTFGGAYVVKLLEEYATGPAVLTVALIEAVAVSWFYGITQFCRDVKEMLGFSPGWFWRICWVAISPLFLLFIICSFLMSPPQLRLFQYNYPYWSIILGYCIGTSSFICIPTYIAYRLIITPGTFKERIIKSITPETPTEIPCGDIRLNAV

pKi [3]	Compound	pKi [1]	pKi [2]	Kb [4] [nM]
6.80	CNCc1cc(C(=O)N2CCN(C(C)C)CC2)ccc1Oc1cccnc1 [Example 9, (4-Isopropyl-piperazin-1-yl)-[3-methylaminomethyl-4-(pyridin-3-yloxy)-phenyl]-methanone]	9.00	6.38	–
–	CC(C)N1CCN(C(=O)c2ccc(CN3CCCCC3)c(Oc3cccnc3)c2)CC1 [Example 33, (4-Isopropyl-piperazin-1-yl)-[4-piperidin-1-ylmethyl-3-(pyridin-3-yloxy)-phenyl]-methanone]	8.70	–	0.316
–	O=C(c1ccc(CN2CCCCC2)c(Oc2cccnc2)c1)N1CCN(C2CC2)CC1 [Example 34, (4-Cyclopropyl-piperazin-1-yl)-[4-piperidin-1-ylmethyl-3-(pyridin-3-yloxy)-phenyl]-methanone]	8.52	–	1.26
–	CN(C)C1CCN(C(=O)c2ccc(CN3CCCCC3)c(Oc3cccnc3)c2)C1 (centres unmarked) [Example 35, (3-Dimethylamino-pyrrolidin-1-yl)-[4-piperidin-1-ylmethyl-3-(pyridin-3-yloxy)-phenyl]-methanone]	8.15	–	2.51
8.30	CNCc1cc(CN2CCN(C3CCC3)CCC2=O)ccc1Oc1ccc(Cl)c(Cl)c1 [Example 70, 1-Cyclobutyl-4-[4-(3,4-dichloro-phenoxy)-3-methylaminomethyl-benzyl]-[1,4]diazepan-5-one]	7.72	–	–
8.70	CNCc1cc(C(=O)NCCN2CCCC2)ccc1Oc1cccc(Cl)c1 [Example 71, 4-(3-Chloro-phenoxy)-3-methylaminomethyl-N-(2-pyrrolidin-1-yl-ethyl)-benzamide]	8.22	–	–
7.19	CNCc1cc(C(=O)N2CCN(C3CCC3)CC2)ccc1Oc1cccc(Cl)c1 [Example 72, [4-(3-Chloro-phenoxy)-3-methylaminomethyl-phenyl]-(4-cyclobutyl-piperazin-1-yl)-methanone]	8.40	–	–
6.30	Cc1ccc(Oc2cc(C(=O)N3CCN(C4CC4)CC3)ccc2CN(C)C)c(C)n1 [Example 80, (4-Cyclopropyl-piperazin-1-yl)-[4-dimethylaminomethyl-3-(2,6-dimethyl-pyridin-3-yloxy)-phenyl]-methanone]	6.85	–	–
5.10	CN(C)Cc1ccc(C(=O)N2CCN(C3CC3)CC2)cc1OCc1ccccc1 [Example 81, (3-Benzyloxy-4-dimethylaminomethyl-phenyl)-(4-cyclopropyl-piperazin-1-yl)-methanone]	7.17	–	–

Compound	pKi [3]	pKi [1]	pKi [2]	Kb [4] [nM]
CC(C)N1CCN(C(=O)c2ccc(CNC3CC3)c(Oc3cccnc3)c2)CC1 [Example 30, [4-Cyclopropylaminomethyl-3-(pyridin-3-yloxy)-phenyl]-(4-isopropyl-piperazin-1-yl)-methanone]	5.40	8.52	–	0.794
O=C(c1ccc(CNC2CC2)c(Oc2cccnc2)c1)N1CCN(C2CC2)CC1 [Example 31, [4-Cyclopropylaminomethyl-3-(pyridin-3-yloxy)-phenyl]-(4-cyclopropyl-piperazin-1-yl)-methanone]	6.00	8.00	–	1.58
CNCc1ccc(C(=O)N2CCN(C(C)C)CC2)cc1Oc1ccc(Cl)cc1 [Example 36, [3-(4-Chloro-phenoxy)-4-methylaminomethyl-phenyl]-(4-isopropyl-piperazin-1-yl)-methanone]	7.55	8.40	–	6.31
CNCc1cc(N2CCN(C(C)C)CCC2=O)ccc1Oc1ccc(SC)cc1 [Example 54, 1-Isopropyl-4-[3-methylaminomethyl-4-(4-methylsulfanyl-phenoxy)-phenyl]-[1,4]diazepan-5-one]	9.30	8.52	–	2
CNCc1cc(N2CCN(C(C)C)CCC2=O)ccc1Oc1ccc(Cl)c(Cl)c1 [Example 73, 4-[4-(3,4-Dichloro-phenoxy)-3-methylaminomethyl-phenyl]-1-isopropyl-[1,4]diazepan-5-one]	7.92	8.11	7.80	4.47
